Results reported in US7504508B2, “PGD2 receptor antagonists for the treatment of inflammatory diseases” (Millennium Pharmaceuticals, Inc., priority 2002, dated 2009).

Molecular target: T1, cloned human CRTH2 receptor (Homo sapiens, UniProt Q9Y5Y4)
T1 construct: purchased Biosignal; host or cells: HEK-293 cells stably expressing human CRTH2 and G-alpha-16 (membranes)
T1 sequence (Q9Y5Y4 1-395): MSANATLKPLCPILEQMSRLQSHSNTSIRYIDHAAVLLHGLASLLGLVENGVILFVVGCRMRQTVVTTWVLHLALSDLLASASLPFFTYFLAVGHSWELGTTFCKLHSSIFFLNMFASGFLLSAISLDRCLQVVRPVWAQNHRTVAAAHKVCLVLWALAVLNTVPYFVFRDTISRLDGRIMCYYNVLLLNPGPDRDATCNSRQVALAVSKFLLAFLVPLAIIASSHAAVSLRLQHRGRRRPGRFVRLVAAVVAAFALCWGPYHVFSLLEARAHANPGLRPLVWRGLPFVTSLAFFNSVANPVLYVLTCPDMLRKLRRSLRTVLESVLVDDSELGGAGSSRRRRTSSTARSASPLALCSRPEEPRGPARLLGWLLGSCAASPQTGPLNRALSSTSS
Assay: Radioligand membrane binding assay: inhibition of [3H] PGD2 binding to CRTH2 (Scintillation Proximity Assay)
Details: inhibition of [3H] PGD2 binding to membranes of HEK-293 cells stably expressing human CRTH2; SPA; 10 point curve from 10 μM; room temperature, approximately 2 hours
Protocol: This radioligand membrane binding assay evaluates the ability of compounds to inhibit [^3H] Prostaglandin D2 (PGD2) binding to the cloned human CRTH2 receptor stably expressed in HEK-293 cells (expressing human CRTh2 receptor and α subunit or the heteronimeric G protein 16 were prepared by Biosignal Company) using Scintillation Proximity Assay.
A binding buffer containing 50 mM Tris-HCl (pH 7.5), 5 mM MgCl2 and 1 mM EDTA was prepared immediately prior to performing the assay. A bead/membrane solution at twice the final assay concentration comprising membranes (membranes bought from Biosignal) from the HEK-293 cells cloned to express CRTH2 receptor bound to and [3H] PGD2 at twotimes the final assay concentration were prepared and stored on ice before adding to wells. Cold PGD2 at twenty times the final assay concentration was prepared and stored on ice before adding to wells defining non-specific binding (NSB) corning plates #3653 were used for this assay.
10 mM stock concentrations of compounds in 100% DMSO were prepared and stored at room temperature. A 10 point concentration response curve was then constructed for each compound, starting at 10 μM (final assay concentration). The compounds were prepared at 40 times final assay concentrations with nine consequent-3-fold dilutions.
0.1 μl of each concentration of compound were added to the appropriate well of the 384 plate and 2 μl of cold PGD2 was added into the wells defining NSB. 20 μl of [^3H] PGD2 and then 20 μl of 2× of bead/membrane solution were then added to each well.
The plates were allowed to incubate at room temperature for approximately 2 hours and then counted on Packard Topcount using SPA tritium protocol for 1 minute/well.
The percent inhibition of PGD2 binding (PGD2 used at the KD value or lower) to the HEK-293 cell membranes was determined, the assay was always run as duplicate for n=1 for a total of n=2.

SMILES	Ki [µM]
CCC(=O)N(c1ccc(C(F)(F)F)cc1)[C@@H]1C[C@H](C)N(C(=O)c2ccc(F)cc2)c2ccccc21 (racemic) [Compound B-13, (±)-Cis-N-[1-(4-Fluoro-benzoyl)-2-methyl-1,2,3,4-tetrahydro-quinolin-4-yl]-N-(4-trifluoromethyl-phenyl)-propionamide]	< 10
COc1ccc(C(=O)N2c3ccccc3[C@H](N(C(C)=O)c3ccc(CC(=O)O)cc3)C[C@@H]2C)cc1 (racemic) [Compound B-39, (±)-Cis-(4-{acetyl-[1-(4-methoxy-benzoyl)-2-methyl-1,2,3,4-tetrahydro-quinolin-4-yl]-amino}-phenyl)-acetic acid]	< 10
COc1ccc(C(=O)N2c3ccccc3[C@H](N(C(C)=O)c3cccc(C(=O)O)c3)C[C@@H]2C)cc1 (racemic) [Compound B-40, (±)-Cis-3-{acetyl-[1-(4-methoxy-benzoyl)-2-methyl-1,2,3,4-tetrahydro-quinolin-4-yl]-amino}-benzoic acid]	< 10
CC(=O)N(c1ccc(Oc2ccccc2)cc1)[C@@H]1C[C@H](C)N(C(=O)c2ccc(F)cc2)c2ccccc21 (racemic) [Compound B-51, (±)-Cis-N-[1-(4-fluoro-benzoyl)-2-methyl-1,2,3,4-tetrahydro-quinolin-4-yl]-N-(4-phenoxy-phenyl)-acetamide]	< 10
COc1cccc(C(=O)N2c3ccccc3[C@H](N(C(C)=O)C3CCCCC3)C[C@@H]2C)c1 (racemic) [Compound B-53, (±)-Cis-N-cyclohexyl-N-[1-(3-methoxy-benzoyl)-2-methyl-1,2,3,4-tetrahydro-quinolin-4-yl]-acetamide]	< 60
CCC(=O)N(c1ccc(Cl)cc1)[C@@H]1C[C@H](C)N(C(=O)c2ccc(F)cc2)c2ccc(OC)cc21 (racemic) [Compound B-59, (±)-Cis-N-(4-chloro-phenyl)-N-[1-(4-fluoro-benzoyl)-6-methoxy-2-methyl-1,2,3,4-tetrahydro-quinolin-4-yl]-propionamide]	< 10
CCC(=O)N(c1ccc(Cl)cc1)[C@@H]1C[C@H](C)N(C(=O)c2ccc(F)cc2)c2ccc(OCCN(CC)CC)cc21 (racemic) [Compound B-63, (±)-Cis-N-(4-Chloro-phenyl)-N-[6-(2-diethylamino-ethoxy)-1-(4-fluoro-benzoyl)-2-methyl-1,2,3,4-tetrahydro-quinolin-4-yl]-propionamide]	< 10
CCOC(=O)C(C)(C)Oc1ccc2c(c1)[C@H](N(C(=O)CC)c1ccc(Cl)cc1)C[C@H](C)N2C(=O)c1ccc(F)cc1 (racemic) [Compound B-64, (±)-Cis-2-[4-[(4-chloro-phenyl)-propionyl-amino]-1-(4-fluoro-benzoyl)-2-methyl-1,2,3,4-tetrahydro-quinolin-6-yloxy]-2-methyl-propionic acid ethyl ester]	< 10
CCC(=O)N(c1ccc(Cl)cc1)[C@@H]1C[C@H](C)N(C(=O)c2ccc(F)cc2)c2ccc(OCC(=O)O)cc21 (racemic) [Compound B-65, (±)-Cis-[4-[(4-chloro-phenyl)-propionyl-amino]-1-(4-fluoro-benzoyl)-2-methyl-1,2,3,4tetrahydro-quinolin-6-yloxy]-acetic acid]	< 10
CCC(=O)N(c1ccc(Cl)cc1)[C@@H]1C[C@H](C)N(C(=O)c2ccc(F)cc2)c2ccc(OC(C)(C)C(=O)O)cc21 (racemic) [Compound B-66, (±)-Cis-2-[4-[(4-chloro-phenyl)-propionyl-amino]-1-(4-fluoro-benzoyl)-2-methyl-1,2,3,4-tetrahydro-quinolin-6-yloxy]-2-methyl-propionic acid]	< 10
CCC(=O)N(c1ccc(Cl)cc1)[C@@H]1C[C@H](C)N(C(=O)c2ccc(F)cc2)c2ccc(N3CCOCC3)cc21 (racemic) [Compound B-70, (±)-Cis-N-(4-chloro-phenyl)-N-[1-(4-fluoro-benzoyl)-2-methyl-6-morpholin-4-yl-1,2,3,4-tetrahydro-quinolin-4-yl]-propionamide]	< 10
CCC(=O)N(c1ccc(Cl)cc1)C1CC(C)N(C(=O)c2ccc(F)cc2)c2ccc(/C=C/C(=O)O)cc21 (racemic) [Compound B-73, (±)-Cis-3-[4-[(4-chloro-phenyl)-propionyl-amino]-1-(4-fluoro-benzoyl)-2-methyl-1,2,3,4-tetrahydro-quinolin-6-yl]-acrylic acid]	< 10
COc1cccc(C(=O)N2c3c(C)cccc3[C@H](N(C(C)=O)c3ccc(Cl)cc3)C[C@@H]2C)c1 (racemic) [Compound B-74, (±)-Cis-N-(4-chloro-phenyl)-N-[1-(3-methoxy-benzoyl)-2,8-dimethyl-1,2,3,4-tetrahydro-quinolin-4-yl]-acetamide]	< 10
CCN(CC)c1ccc(N(C(C)=O)[C@@H]2C[C@H](C)N(C(=O)c3ccc(N(C)C)cc3)c3cc(N(CC)CC)ccc32)cc1 (racemic) [Compound B-84, (±)-Cis-N-[7-diethylamino-1-(4-dimethylamino-benzoyl)-2-methyl-1,2,3,4-tetrahydro-quinolin-4-yl]-N-(4-diethylamino-phenyl)-acetamide]	< 10
CCC(=O)N(c1ccc(Cl)cc1)[C@@H]1C[C@H](C)N(C(=O)c2ccc(F)cc2)c2cccc(OC)c21 (racemic) [Compound B-86, (±)-Cis-N-(4-chloro-phenyl)-N-[1-(4-fluoro-benzoyl)-5-methoxy-2-methyl-1,2,3,4-tetrahydro-quinolin-4-yl]-propionamide]	< 10
CCC(=O)N(c1ccc(Cl)cc1)[C@@H]1C[C@H](CCc2ccccc2)N(C(=O)c2ccc(F)cc2)c2ccccc21 (racemic) [Compound B-97, (±)-Cis-N-(4-chloro-phenyl)-N-[1-(4-fluoro-benzoyl)-2-phenethyl-1,2,3,4-tetrahydro-quinolin-4-yl]-propionamide]	< 10
COc1cccc(C(=O)N2c3ccccc3[C@H](N(C(C)=O)c3ccccc3)C[C@@H]2c2ccccc2)c1 (racemic) [Compound B-100, (±)-Cis-N-[1-(3-methoxy-benzoyl)-2-phenyl-1,2,3,4-tetrahydro-quinolin-4-yl]-N-phenyl-acetamide]	< 60
CCOC(=O)[C@H]1C[C@@H](N(C(C)=O)c2ccccc2)c2ccccc2N1C(=O)c1ccc(F)cc1 (racemic) [Compound B-101, (±)-Cis-4-(acetyl-phenyl-amino)-1-(4-fluoro-benzoyl)-1,2,3,4-tetrahydro-quinoline-2-carboxylic acid ethyl ester]	< 10
CC(=O)N(c1ccccc1)[C@@H]1C[C@H](C(=O)O)N(C(=O)c2ccc(F)cc2)c2ccccc21 (racemic) [Compound B-102, (±)-Cis-4-(acetyl-phenyl-amino)-1-(4-fluoro-benzoyl)-1,2,3,4-tetrahydro-quinoline-2-carboxylic acid]	< 10
CCC[C@H]1C[C@@H](N(C(=O)CC)c2ccc(Cl)cc2)c2ccccc2N1C(=O)c1ccc(F)cc1 (racemic) [Compound B-103, (±)-Cis-N-(4-chloro-phenyl)-N-[1-(4-fluoro-benzoyl)-2-propyl-1,2,3,4-tetrahydro-quinolin-4-yl]-propionamide]	< 10
CCC(=O)OC[C@H]1C[C@@H](N(C(=O)CC)c2ccc(Cl)cc2)c2ccccc2N1C(=O)c1ccc(F)cc1 (racemic) [Compound B-104, (±)-Cis-propionic acid 4-[(4-chloro-phenyl)-propionyl-amino]-1-(4-fluoro-benzoyl)-1,2,3,4-tetrahydro-quinolin-2-ylmethyl ester]	< 10
CCC(=O)N(c1ccc(Cl)cc1)[C@@H]1C[C@H](CO)N(C(=O)c2ccc(F)cc2)c2ccccc21 (racemic) [Compound B-105, (±)-Cis-N-(4-chloro-phenyl)-N-[1-(4-fluoro-benzoyl)-2-hydroxymethyl-1,2,3,4-tetrahydro-quinolin-4-yl]-propionamide]	< 10
CCC(=O)N(c1ccc(Cl)cc1)[C@@H]1C[C@H](CN(CC)CC)N(C(=O)c2ccc(F)cc2)c2ccccc21 (racemic) [Compound B-106, (±)-Cis-N-(4-chloro-phenyl)-N-[2-diethylaminomethyl-1-(4-fluoro-benzoyl)-1,2,3,4-tetrahydro-quinolin-4-yl]-propionamide]	< 10
